According to US4413009A, “N-((Alkylamino)carbonyl)-N-(((alkylamino)carbonyl)oxy)acylamides with antineoplastic activity” (priority 1982, dated 1983):

What follows are compounds tested on HeLa cells (assay: HeLa cell colony cytotoxicity / growth inhibition test). Settings: 8 days, 0-50 μg/ml.
Type: cell-based, human
Experimental: HeLa cells were seeded in 24-well tissue culture plates at a concentration of 30 cells per well in 1 ml of growth medium (Eagle's minimum essential medium with 5 percent HIFCS). The plates were incubated at 36° C. for 24 hours after which the growth medium was removed. The cells were resuspended in 1 ml of fresh growth medium described above together with a measured quantity of (0-50 μg/ml) of one of the compounds of this invention. The 0 μg/ml concentration served as a control. The tissue culture plates were then incubated at 36° C. for 8 days at which time the medium was removed and the cells were fixed and stained with 0.1% crystal violet in 20% ethanol. The HeLa cell colonies were counted macroscopically, and comparisons of colony size in treated and control wells were made. Test compounds were considered cytotoxic at concentrations which reduced the number of HeLa cell colonies compared to control by 50% or more. Test compounds of the invention were considered to cause HeLa cell growth inhibition at concentrations which reduced the size of colonies by a measurable amount when compared to control.

Row | SMILES | Cell Growth Inhibition: concentration at which the size of the HeLa colonies were reduced by a measurable amount (as compared to control) [µg/mL]
1 | CCNC(=O)ON(C(C)=O)C(=O)NCC [Example 2, N-((Ethylamino)carbonyl)-N-(((ethylamino)-carbonyl)oxy)acetamide] | 12.5
2 | CC(=O)N(OC(=O)NC(C)(C)C)C(=O)NC(C)(C)C [Example 3, N-(((1,1-dimethylethyl)amino)carbonyl)-N-((((1,1-dimethylethyl)amino)carbonyl)oxy)acetamide] | 12.5
3 | CCC(=O)N(OC(=O)NC)C(=O)NC [Example 4, N-((methylamino)carbonyl)-N-(((methyl-amino)carbonyl)oxy)propionamide] | 12.5
4 | CCNC(=O)ON(C(=O)CC)C(=O)NCC [Example 5, N-((ethylamino)carbonyl)-N-(((ethylamino)-carbonyl)oxy)propionamide] | 50
5 | CNC(=O)ON(C(=O)NC)C(=O)C(C)(C)C [Example 6, N-((Methylamino)carbonyl)-N-(((methylamino)-carbonyl)oxy)(2,2-dimethyl)propionamide] | 12.5
6 | CC(=O)N(OC(=O)NC1CCCCC1)C(=O)NC1CCCCC1 [Example 7, N-((Cyclohexylamino)carbonyl)-N-(((cyclohexylamino)carbonyl)oxy)acetamide] | 1.6
7 | CC(=O)N(OC(=O)NC(C)C)C(=O)NC(C)C [Example 8, N-(((1-Methylethyl)amino)carbonyl)-N-((((1-methylethyl)amino)carbonyl)oxy)acetamide] | 1.6
8 | CCCNC(=O)ON(C(C)=O)C(=O)NCCC [Example 9, N-((Propylamino)carbonyl)-N-(((propylamino)carbonyl)oxy)acetamide] | 6.3
9 | CC(=O)N(OC(=O)Nc1ccccc1)C(=O)Nc1ccccc1 [Example 10, N-((Phenylamino)carbonyl)-N-(((phenylamino)carbonyl)oxy)acetamide] | 50
10 | CC(=O)N(OC(=O)Nc1cccc(C)c1)C(=O)Nc1cccc(C)c1 [Example 11, N-(((3-methylphenyl)amino)carbonyl)-N-((((3-methylphenyl)amino)carbonyl)oxy)acetamide] | 50
11 | CC(=O)N(OC(=O)Nc1ccc(C)cc1)C(=O)Nc1ccc(C)cc1 [Example 12, N-(((4-Methylphenyl)amino)carbonyl)-N-((((4-methylphenyl)amino)carbonyl)oxy)acetamide] | 12.5
12 | CCCCNC(=O)ON(C(C)=O)C(=O)NCCCC [Example 13, N-((Butylamino)carbonyl)-N-(((butylamino)carbonyl)oxy)acetamide] | 3.1
13 | CC(C)NC(=O)ON(C(=O)NC(C)C)C(=O)c1ccccc1 [Example 14, N-(((1-Methylethyl)amino)carbonyl)-N-((((1-methylethyl)amino)carbonyl)oxy)benzamide] | 0.8
14 | CNC(=O)ON(C(=O)NC)C(=O)c1ccccc1 [Example 15, N-((Methylamino)carbonyl)-N-(((methylamino)-carbonyl)oxy)benzamide] | 3.1
15 | CCNC(=O)ON(C(=O)NCC)C(=O)c1ccccc1 [Example 16, N-((Ethylamino)carbonyl)-N-(((ethylamino)-carbonyl)oxy)benzamide] | 12.5
16 | CCCNC(=O)ON(C(=O)NCCC)C(=O)c1ccccc1 [Example 17, N-((Propylamino)carbonyl)-N-(((propylamino)-carbonyl)oxy)benzamide] | 12.5
17 | CCCCNC(=O)ON(C(=O)NCCCC)C(=O)c1ccccc1 [Example 18, N-((Butylamino)carbonyl)-N-(((butylamino)-carbonyl)oxy)benzamide] | 0.8
18 | CC(C)(C)NC(=O)ON(C(=O)NC(C)(C)C)C(=O)c1ccccc1 [Example 19, N-(((1,1-Dimethylethyl)amino)carbonyl)-N-((((1,1-dimethylethyl)amino)carbonyl)oxy)benzamide] | 50
19 | O=C(Nc1ccccc1)ON(C(=O)Nc1ccccc1)C(=O)c1ccccc1 [Example 20, N-((Phenylamino)carbonyl)-N-(((phenyl-amino)carbonyl)oxy)benzamide] | 50
20 | CCCNC(=O)ON(C(=O)NCCC)C(=O)C1CC1 [Example 22, N-((Propylamino)carbonyl)-N-(((propyl-amino)carbonyl)oxy)cyclopropanecarboxamide] | 3.1
21 | CNC(=O)ON(C(=O)NC)C(=O)C1CC1 [Example 23, N-((Methylamino)carbonyl)-N-(((methylamino)carbonyl)oxy)cyclopropanecarboxamide] | 12.5
22 | CCNC(=O)ON(C(=O)NCC)C(=O)C1CC1 [Example 24, N-((Ethylamino)carbonyl)-N-(((ethylamino)carbonyl)oxy)cyclopropanecarboxamide] | 3.1
23 | CC(C)NC(=O)ON(C(=O)NC(C)C)C(=O)C1CC1 [Example 25, N-(((1-Methylethyl)amino)carbonyl)-N-((((1-methylethyl)amino)carbonyl)oxy)cyclopropanecarboxamide] | 3.1
24 | CCCCNC(=O)ON(C(=O)NCCCC)C(=O)C1CC1 [Example 26, N-((Butylamino)carbonyl)-N-(((butylamino)carbonyl)oxy)cyclopropanecarboxamide] | 12.5
25 | CC(C)(C)NC(=O)ON(C(=O)NC(C)(C)C)C(=O)C1CC1 [Example 27, N-(((1,1-Dimethylethyl)amino)carbonyl)-N-((((1,1-dimethylethyl)amino)carbonyl)oxy)cyclopropanecarboxamide] | 50
26 | O=C(Nc1ccccc1)ON(C(=O)Nc1ccccc1)C(=O)C1CC1 [Example 28, N-((Phenylamino)carbonyl)-N-(((phenylamino)carbonyl)oxy)cyclopropanecarboxamide] | 50
27 | O=C(NC1CCCCC1)ON(C(=O)NC1CCCCC1)C(=O)C1CC1 [Example 29, N-((Cyclohexylamino)carbonyl)-N-(((cyclohexylamino)carbonyl)oxy)cyclopropanecarboxamide] | 12.5
28 | CNC(=O)ON(C(=O)NC)S(C)(=O)=O [Example 30, N-((Methylamino)carbonyl)-N-(((methyl-amino)carbonyl)oxy)methanesulfamide] | 3.1
29 | CCNC(=O)ON(C(=O)NCC)S(C)(=O)=O [Example 31, N-((Ethylamino)carbonyl)-N-(((ethylamino)-carbonyl)oxy)-methanesulfamide] | 3.1
